Measurements published in PubChem BioAssay (NCI).
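Five concentrations, 48 hours, 96-well plates. At the GI50, growth is halved. TGI: concentration producing complete growth inhibition.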

What was measured:
Test in all cases: NCI-60 cell line screen, 48 h
ACHN renal = system: ACHN renal
CCRF-CEM leukemia = system: CCRF-CEM leukemia
COLO 205 colon = system: COLO 205 colon
HOP-62 NSCLC = system: HOP-62 NSCLC
M14 melanoma = system: M14 melanoma
OVCAR-3 ovarian = system: OVCAR-3 ovarian
SF-295 CNS = system: SF-295 CNS
SK-OV-3 ovarian = system: SK-OV-3 ovarian
SR leukemia = system: SR leukemia
T-47D breast = system: T-47D breast

SMILES | TGI (ACHN renal) | TGI (CCRF-CEM leukemia) | TGI (COLO 205 colon) | TGI (HOP-62 NSCLC) | TGI (M14 melanoma) | TGI (OVCAR-3 ovarian) | TGI (SF-295 CNS) | TGI (SK-OV-3 ovarian) | TGI (SR leukemia) | GI50 (ACHN renal) | GI50 (CCRF-CEM leukemia) | GI50 (COLO 205 colon) | GI50 (HOP-62 NSCLC) | GI50 (M14 melanoma) | GI50 (OVCAR-3 ovarian) | GI50 (SF-295 CNS) | GI50 (SK-OV-3 ovarian) | GI50 (T-47D breast) | TGI (T-47D breast) | GI50 (SR leukemia)
COc1cc(C)c(O)c(C(=O)O)c1 | > 100 µM | > 100 µM | > 100 µM | > 100 µM | > 100 µM | > 100 µM | > 100 µM | > 100 µM | > 100 µM |  |  |  |  |  |  |  |  |  |  | 
CC(=O)Nc1ccc(/C=C/C(=O)c2sc(-c3nc(C)c(C(=O)/C=C/c4ccc(NC(C)=O)cc4)s3)nc2C)cc1 | > 100 µM | > 100 µM | > 100 µM | > 100 µM | > 100 µM | > 100 µM | > 100 µM | > 100 µM | > 100 µM |  |  |  |  |  |  |  |  |  |  | 
CCOC(=O)c1nc(-c2ccccc2)oc1OCC |  | > 100 µM | > 100 µM | > 100 µM | > 100 µM | > 100 µM | > 100 µM | > 100 µM |  |  |  |  |  |  |  |  |  |  |  | 
CCOC(=O)C1=C(Nc2cccc3ccccc23)OC/C1=N\NC(=O)c1ccccc1O | > 100 µM | 37.1 µM | 29.3 µM | > 100 µM | > 100 µM | 60 µM | > 100 µM | > 100 µM | 41.4 µM |  |  |  |  |  |  |  |  |  |  | 
CCCOC(=O)CCn1c(SC)nc2[nH]cc(-c3ccccc3)c2c1=O | 77.2 µM | 35.1 µM | 46.5 µM | 88.2 µM | > 100 µM | 54.1 µM | 52.4 µM | > 100 µM |  | 22.2 µM | 1.37 µM | 19.1 µM | 5.49 µM | 15.6 µM | 19.9 µM | 11.1 µM | 38.3 µM | 11.7 µM | 62 µM | 
Nc1cc(N)c2nc(-c3ccccc3)c(NCc3ccc(F)cc3)nc2c1 | 3.11 µM |  | 6.18 µM | > 100 µM | 55.9 µM | 6.42 µM | 13.6 µM | 26.4 µM | > 100 µM | 1.71 µM |  | 2.53 µM | 39.1 µM | 23.7 µM | 2.39 µM | 3.5 µM | 12.9 µM |  |  | 4.11 µM
O=C(Nc1nc(=S)c2c(ncn2CCO)[nH]1)c1ccccc1 | > 100 µM | > 100 µM | > 100 µM | > 100 µM | > 100 µM | > 100 µM | > 100 µM | > 100 µM | > 100 µM |  |  |  |  |  |  |  |  |  |  | 
COC(=O)C1=C(C(=O)OC)SC(=C(N=Nc2ccccc2)c2ccccc2)S1 | > 100 µM | > 100 µM | > 100 µM | > 100 µM | > 100 µM | > 100 µM | > 100 µM | > 100 µM | > 100 µM |  |  |  |  |  |  |  |  |  |  | 
O=C(CCc1cc(-c2ccccc2)nc(=S)[nH]1)Nc1ccccc1[N+](=O)[O-] | > 100 µM | > 100 µM | > 100 µM | > 100 µM | > 100 µM | > 100 µM | > 100 µM | > 100 µM | > 100 µM |  |  |  |  |  |  |  |  |  |  | 
C=CCC(OCCOCC)c1cc(OCCOCC)ccc1OC (stereo unspecified) | > 100 µM | > 100 µM | > 100 µM | > 100 µM | > 100 µM | > 100 µM | > 100 µM | > 100 µM |  |  |  |  |  |  |  |  |  |  |  | 
COC(=O)C1=C(O)c2cc3c(cc2[C@H](c2cc(OC)c(OC)c(OC)c2)C1C(=O)OC)OCO3 (stereo partly specified) | 58.1 µM | > 100 µM | 45.7 µM | > 100 µM | > 100 µM | 92.4 µM | > 100 µM | > 100 µM | > 100 µM |  |  |  |  |  |  |  |  |  |  | 
CS/C(C)=N/OC(=O)NCCCCNc1ccc(N=[N+]=[N-])cc1 | 97.2 µM | > 100 µM | > 100 µM | > 100 µM | > 100 µM | 62.9 µM | > 100 µM | > 100 µM | > 100 µM |  |  |  |  |  |  |  |  |  |  | 
CN(C(=O)c1ccncc1)c1ccccc1 | > 100 µM |  | > 100 µM | > 100 µM | > 100 µM | > 100 µM | > 100 µM | > 100 µM | > 100 µM |  |  |  |  |  |  |  |  |  | > 100 µM | 
COc1cc(/C=C/C(=O)c2sc(NNC(C)=O)nc2C)ccc1O | > 100 µM | > 100 µM | > 100 µM | > 100 µM |  | > 100 µM | > 100 µM | > 100 µM |  |  |  |  |  |  |  |  |  |  |  | 
C[C@@H](NC1CCC[C@H]1O)c1ccccc1 (stereo partly specified) | > 100 µM | > 100 µM | > 100 µM | > 100 µM | > 100 µM | > 100 µM | > 100 µM | > 100 µM |  |  |  |  |  |  |  |  |  |  |  | 
Cn1cc(-c2ccc(-c3cn(C)c4ccc(Cl)cc34)s2)c2cc(Cl)ccc21 | > 100 µM | > 100 µM | > 100 µM | > 100 µM | > 100 µM | > 100 µM | > 100 µM | > 100 µM | > 100 µM | > 100 µM | > 100 µM | > 100 µM | > 100 µM | > 100 µM | > 100 µM | > 100 µM | > 100 µM |  |  | > 100 µM
Cc1ccc2c(c1)C(=O)c1c-2n(CCCBr)c(=O)c2cc([N+](=O)[O-])ccc12 | > 100 µM | 46.4 µM | > 100 µM | > 100 µM | > 100 µM | > 100 µM | > 100 µM | > 100 µM |  | 23.3 µM | 5.29 µM | 87.4 µM | 24.4 µM | 45.8 µM | 71.1 µM | 73.8 µM | > 100 µM | 7.69 µM | 60.8 µM | 
CCCCNC(=O)NS(=O)(=O)c1ccc(N2N=C(c3cc(C)ccc3C)CC2c2cc(OC)c(OC)c(OC)c2)cc1 (stereo unspecified) | 12.5 µM | 6.12 µM | 5.19 µM | 10.2 µM | 5.97 µM | 3.99 µM |  | 10.1 µM |  | 3.69 µM | 2.2 µM | 2.6 µM | 3.15 µM | 2.14 µM | 2.07 µM |  | 3.53 µM | 3.91 µM | 18.4 µM | 
Cc1[nH]c2ccccc2c1CCNCc1ccc(/C=C/C(=O)NO)cc1 | 0.0714 µM |  | 0.0218 µM | 0.0697 µM | 0.111 µM |  | 0.0563 µM | 0.0412 µM |  | 0.0183 µM |  | < 0.0108 µM | < 0.0122 µM | < 0.0116 µM |  | 0.0146 µM | 0.0134 µM | < 0.01 µM | 0.0344 µM | < 0.01 µM
O=C1NC2C=CN(Cc3ccccc3)C=C2C(=O)N2CCCC12 (stereo unspecified) | > 100 µM | > 100 µM | > 100 µM | > 100 µM | > 100 µM | > 100 µM | > 100 µM | > 100 µM | > 100 µM |  |  |  |  |  |  |  |  |  |  | 
